The results in this text go back to patent US9447044B2, “Thioaryl derivatives as GPR120 agonists” (LG LIFE SCIENCES LTD., priority 2012, dated 2016).

The target of the first experiment is T1, hGPR120 (Homo sapiens, UniProt Q5NUL3).
T1 construct: expressed in transfected cells; host or cells: CHO-K1
T1 sequence (Q5NUL3 1-361): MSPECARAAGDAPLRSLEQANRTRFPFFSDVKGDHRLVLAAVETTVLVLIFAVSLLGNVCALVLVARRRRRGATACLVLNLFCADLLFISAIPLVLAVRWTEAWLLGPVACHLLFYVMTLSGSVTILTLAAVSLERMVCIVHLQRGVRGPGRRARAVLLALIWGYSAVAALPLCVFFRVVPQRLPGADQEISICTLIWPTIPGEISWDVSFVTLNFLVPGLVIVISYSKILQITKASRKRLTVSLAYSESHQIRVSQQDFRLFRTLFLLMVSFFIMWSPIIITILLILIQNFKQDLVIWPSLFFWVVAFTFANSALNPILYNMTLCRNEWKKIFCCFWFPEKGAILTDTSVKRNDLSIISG
The experiment can be described thus: Measurement of activity of GPR120 agonist (cell-based assay), calcium fluorescence. The settings on record: CHO-K1 cells expressing Ga16 and hGPR120; Calcium 5 dye fluorescence; activity class. The method in brief: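 CHO-K1 cells co-expressing Gα16 and hGPR120, loaded with Calcium 5 dye for 1 h at 37° C, received serially diluted agonists (final 0.5% DMSO). Fluorescence (Ex 485/Em 525 nm) was expressed as relative percent over 0.1% DMSO-only wells; activity binned as A >20 μM, B 20–2 μM, C 2–0.2 μM, D <0.2 μM.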
For the molecule `O=C(O)C1CC1c1ccc(OCc2cccc(SCC3CC3)n2)c(Cl)c1` (centres unmarked) [Example 98, 2-[3-chloro-4-(6-cyclopropylmethylsulfanyl-pyridin-2-ylmethoxy)-phenyl]-cyclopropane carboxylic acid], the EC50 was < 200 nM.

As to `CC(C)Sc1cccc(COc2ccc(C3CC3C(=O)O)cc2Cl)n1` (centres unmarked) [Example 99, 2-[3-chloro-4-(6-isopropylsulfanyl-pyridin-2-ylmethoxy)-phenyl]-cyclopropane carboxylic acid], the EC50 is < 200 nM.

As to `O=C(O)C1CC1c1ccc(OCc2cccc(SC3CCCC3)n2)c(Cl)c1` (centres unmarked) [Example 100, 2-[3-chloro-4-(6-cyclopentylsulfanyl-pyridin-2-ylmethoxy)-phenyl]-cyclopropane carboxylic acid], the 50% effective concentration (EC50) was < 200 nM.

As for `O=C(O)C1CC1c1ccc(OCc2cccnc2SC2CCCC2)c(Cl)c1` (centres unmarked) [Example 101, 2-[3-chloro-4-(2-cyclopentylsulfanyl-pyridin-3-ylmethoxy)-phenyl]-cyclopropane carboxylic acid], the 50% effective concentration (EC50) was < 200 nM.

Consider `O=C(O)C1CC1c1ccc(OCc2cccnc2SC2CCC2)c(Cl)c1` (centres unmarked) [Example 102, 2-[3-chloro-4-(2-cyclobutylsulfanyl-pyridin-3-ylmethoxy)-phenyl]-cyclopropane carboxylic acid], for which the half-maximal effective concentration (EC50) was < 200 nM.

Regarding `O=C(O)C1CC1c1ccc(OCc2cccc(SC3CCC3)n2)c(Cl)c1` (centres unmarked) [Example 103, 2-[3-chloro-4-(6-cyclobutylsulfanyl-pyridin-2-ylmethoxy)-phenyl]-cyclopropane carboxylic acid], the EC50 is < 200 nM.

For the molecule `O=C(O)C1CC1c1ccc(OCc2cccc(SC3CCCC3)n2)cc1Cl` (centres unmarked) [Example 104], the EC50 was 200 to 2000 nM.

Take `Cc1c(OCc2cccnc2SC(C)C)ccc(C2CC2C(=O)O)c1C` (centres unmarked) [Example 105, 2-[4-(2-isopropylsulfanyl-pyridin-3-ylmethoxy)-2,3-dimethyl-phenyl]-cyclopropane carboxylic acid]: the concentration giving a half-maximal response (EC50) fell in the range of 2000 to 20000 nM.

As for `Cc1c(OCc2cccnc2SCC2CC2)ccc(C2CC2C(=O)O)c1C` (centres unmarked) [Example 106, 2-[4-(2-cyclopropylmethylsulfanyl-pyridin-3-ylmethoxy)-2,3-dimethyl-phenyl]-cyclopropane carboxylic acid], the 50% effective concentration (EC50) is > 20000 nM.

Take `O=C(O)C1CC1c1ccc(OCc2cccnc2SCC2CC2)c(Cl)c1` (centres unmarked) [Example 107, 2-[3-chloro-4-(2-cyclopropylmethylsulfanyl-pyridin-3-ylmethoxy)-phenyl]-cyclopropane carboxylic acid]: the EC50 was < 200 nM.

In the case of `CCCSc1ncccc1COc1ccc(C2CC2C(=O)O)cc1Cl` (centres unmarked) [Example 108, 2-[3-chloro-4-(2-propylsulfanyl-pyridin-3-ylmethoxy)-phenyl]-cyclopropane carboxylic acid], the EC50 was < 200 nM.

Consider `COc1ccc(COc2ccc(C3CC3C(=O)O)cc2Cl)c(SC(C)C)n1` (centres unmarked) [Example 109, 2-[3-chloro-4-(2-isopropylsulfanyl-6-methoxy-pyridin-3-ylmethoxy)-phenyl]-cyclopropane carboxylic acid], for which the EC50 was 200 to 2000 nM.

Regarding `O=C(O)C1CC1Cc1cc(F)c(OCc2cccc(SC3CCCC3)n2)c(F)c1` (centres unmarked) [Example 110, 2-[4-(6-cyclopentylsulfanyl-pyridin-2-ylmethoxy)-3,5-difluoro-benzyl]-cyclopropane carboxylic acid], the EC50 was 200 to 2000 nM.

Consider `O=C(O)CC1COc2c1cc(F)c(OCc1cccnc1SC1CCC1)c2F` (centres unmarked) [Example 111, [6-(2-cyclobutylsulfanyl-pyridin-3-ylmethoxy)-5,7-difluoro-2,3-dihydro-benzofuran-3-yl]-acetic acid], for which the EC50 is < 200 nM.

For `CCCSc1ncccc1COc1ccc(C2CC2C(=O)O)c(C)c1C` (centres unmarked) [Example 112, 2-[2,3-dimethyl-4-(2-propylsulfanyl-pyridin-3-ylmethoxy)-phenyl]-cyclopropane carboxylic acid], the EC50 was > 20000 nM.

Turning to `Cc1c(OCc2cccnc2SC2CCC2)ccc(C2CC2C(=O)O)c1C` (centres unmarked) [Example 113, 2-[4-(2-cyclobutylsulfanyl-pyridin-3-ylmethoxy)-2,3-dimethyl-phenyl]-cyclopropane carboxylic acid], the EC50 is > 20000 nM.

Regarding `Cc1c(OCc2cccc(SC(C)C)n2)ccc(C2CC2C(=O)O)c1C` (centres unmarked) [Example 114, 2-[4-(6-isopropylsulfanyl-pyridin-2-ylmethoxy)-2,3-dimethyl-phenyl]-cyclopropane carboxylic acid], the EC50 lay within 2000 to 20000 nM.

With `O=C(O)C1CC1Cc1cc(F)c(OCc2cccc(SC3CCC3)n2)c(F)c1` (centres unmarked) [Example 115, 2-[4-(6-cyclobutylsulfanyl-pyridin-2-ylmethoxy)-3,5-difluoro-benzyl]-cyclopropane carboxylic acid], the EC50 was < 200 nM.

Regarding `CC(C)Sc1ncccc1COc1c(F)cc(CC2CC2C(=O)O)cc1F` (centres unmarked) [Example 116, 2-[3,5-difluoro-4-(2-isopropylsulfanyl-pyridin-3-ylmethoxy)-benzyl]-cyclopropane carboxylic acid], the EC50 was in the range of 200 to 2000 nM.

Consider `O=C(O)CC1CC1c1ccc(OCc2cccc(SC3CCCC3)n2)c(F)c1` (centres unmarked) [Example 120, {2-[4-(6-cyclopentylsulfanyl-pyridin-2-ylmethoxy)-3-fluoro-phenyl]-cyclopropyl}-acetic acid], for which the EC50 fell in the range of 200 to 2000 nM.

As to `CCCSc1ncccc1COc1ccc(C2CC2CC(=O)O)cc1F` (centres unmarked) [Example 121, {2-[3-fluoro-4-(2-propylsulfanyl-pyridin-3-ylmethoxy)-phenyl]-cyclopropyl}-acetic acid], the EC50 is < 200 nM.

Consider `O=C(O)Cc1coc2c(F)c(OCc3cccnc3SC3CCCC3)c(F)cc12` [Example 122, [6-(2-cyclopentylsulfanyl-pyridin-3-ylmethoxy)-5,7-difluoro-benzofuran-3-yl]-acetic acid], for which the EC50 was < 200 nM.

`O=C(O)CC1COc2c1cc(F)c(OCc1cccnc1SC1CCCC1)c2F` (centres unmarked) [Example 123, [6-(2-cyclopentylsulfanyl-pyridin-3-ylmethoxy)-5,7-difluoro-2,3-dihydro-benzofuran-3-yl]-acetic acid]: the EC50 was < 200 nM.

Take `O=C(O)C1CC1c1ccc(OCc2cccnc2SCC2CC2)c(Cl)c1` (centres unmarked) [Example 127, 2-[3-chloro-4-(2-cyclopropylmethylsulfanyl-pyridin-3-ylmethoxy)-phenyl]-cyclopropane carboxylic acid]: the EC50 is < 200 nM.

In the case of `O=C(O)C1CC1c1ccc(OCc2cccc(SC3CCC3)n2)c(Cl)c1` (centres unmarked) [Example 132, 2-[3-chloro-4-(6-cyclobutylsulfanyl-pyridin-2-ylmethoxy)-phenyl]-cyclopropane carboxylic acid], the EC50 was < 200 nM.

Turning to `CCCSc1ncccc1COc1c(F)cc(C2CC2C(=O)O)cc1F` (centres unmarked) [Example 139, 2-[3,5-difluoro-4-(2-propylsulfanyl-pyridin-3-ylmethoxy)-phenyl]-cyclopropane carboxylic acid], the concentration for a half-maximal effect (EC50) was < 200 nM.

For `CC(C)Sc1cccc(COc2ccc(CCC(=O)O)cc2Cl)n1` [Example 141, 3-[3-chloro-4-(6-isopropylsulfanyl-pyridin-2-ylmethoxy)-phenyl]-propionic acid], the EC50 was < 200 nM.

Regarding `O=C(O)CCc1ccc(OCc2cccc(SC3CCCC3)n2)c(Cl)c1` [Example 143, 3-[3-chloro-4-(6-cyclopentylsulfanyl-pyridin-2-ylmethoxy)-phenyl]-propionic acid], the EC50 was < 200 nM.

Take `CCCSc1ncccc1COc1ccc(CCC(=O)O)cc1F` [Example 144, 3-[3-fluoro-4-(2-propylsulfanyl-pyridin-3-ylmethoxy)-phenyl]-propionic acid]: the EC50 is < 200 nM.

Still in this experiment, the particulars now being: CHO-K1 cells expressing Ga16 and hGPR120; Calcium 5 dye fluorescence; numeric value.
With `CCCSc1ncccc1COc1c(F)cc(CC2CC2C(=O)O)cc1F` (centres unmarked) [Example 117, 2-[3,5-difluoro-4-(2-propylsulfanyl-pyridin-3-ylmethoxy)-benzyl]-cyclopropane carboxylic acid], the EC50 amounted to 108 nM.

Consider `Cc1c(OCc2cccnc2SC2CCCC2)ccc2c(CC(=O)O)coc12` [Example 118, [6-(2-cyclopentylsulfanyl-pyridin-3-ylmethoxy)-7-methyl-benzofuran-3-yl]-acetic acid], for which the EC50 came out at 135 nM.

Consider `CC(C)Sc1ncccc1COc1ccc(C2CC2C(=O)O)cc1Cl` (centres unmarked) [Example 126, 2-[3-chloro-4-(2-isopropylsulfanyl-pyridin-3-ylmethoxy)-phenyl]-cyclopropane carboxylic acid], for which the EC50 came to 91 nM.

On to `O=C(O)C1CC1c1ccc(OCc2cccc(SCC3CC3)n2)c(Cl)c1` (centres unmarked) [Example 128, 2-[3-chloro-4-(6-cyclopropylmethylsulfanyl-pyridin-2-ylmethoxy)-phenyl]-cyclopropane carboxylic acid], for which the EC50 amounted to 42 nM.

Take `CC(C)Sc1ncccc1COc1c(F)cc(C2CC2C(=O)O)cc1F` (centres unmarked) [Example 138, 2-[3,5-difluoro-4-(2-isopropylsulfanyl-pyridin-3-ylmethoxy)-phenyl]-cyclopropane carboxylic acid]: the EC50 worked out at 56 nM.

With `O=C(O)CCc1ccc(OCc2cccc(SCC3CC3)n2)c(Cl)c1` [Example 142, 3-[3-chloro-4-(6-cyclopropylmethylsulfanyl-pyridin-2-ylmethoxy)-phenyl]-propionic acid], the EC50 is 11 nM.

As a reminder, the EC50 is the concentration at which the effect is half-maximal.
